Experimental data reported in ChEMBL document CHEMBL3297657, “Synthesis and antitumor activities of novel α-aminophosphonate derivatives containing an alizarin moiety” (Eur J Med Chem, 2014).
Active and inactive are the calls of the source. No cut-off for these calls is given here.

Tests used:
NCI-H460 [1] = assay: Induction of apoptosis in human NCI-H460 cells assessed as viable cells at 20 uM after 24 hrs by Annexin V/propidium iodide staining-based flow cytometry (reference value: 72.2%); type: functional; details: NCI-H460, 24 h, read-out: Activity
NCI-H460 [2] = assay: Induction of apoptosis in human NCI-H460 cells assessed as increase in intracellular calcium release at 5 to 20 uM after 24 hrs by Fluo-3/AM staining-based fluorescence microscopy; type: functional, cell-based
NCI-H460 [3] = assay: Induction of apoptosis in human NCI-H460 cells assessed as late apoptotic cells after 24 hrs by Annexin V/propidium iodide staining-based flow cytometry; type: functional, cell-based
NCI-H460 [4] = assay: Induction of apoptosis in human NCI-H460 cells assessed as upregulation of AIF mRNA expression after 24 hrs by qRT-PCR analysis; type: functional, cell-based
NCI-H460 [5] = assay: Induction of apoptosis in human NCI-H460 cells assessed as late apoptotic cells at 5 uM after 24 hrs by Annexin V/propidium iodide staining-based flow cytometry (reference value: 14.1%); type: functional
NCI-H460 [6] = assay: Induction of apoptosis in human NCI-H460 cells assessed as viable cells at 10 uM after 24 hrs by Annexin V/propidium iodide staining-based flow cytometry (reference value: 72.2%); type: functional; details: NCI-H460, 24 h, read-out: Activity
NCI-H460 [7] = assay: Induction of apoptosis in human NCI-H460 cells assessed as change in mitochondrial membrane potential at 8 uM after 12 to 48 hrs by JC-1 staining-based fluorescence microscopy relative to control; type: functional, cell-based
NCI-H460 [8] = assay: Induction of apoptosis in human NCI-H460 cells assessed as viable cells at 8 uM by Annexin V/propidium iodide staining-based flow cytometry; type: functional, cell-based; details: TDE = time-dependent effect
NCI-H460 [9] = assay: Induction of apoptosis in human NCI-H460 cells assessed as late apoptotic cells at 8 uM after 12 hrs by Annexin V/propidium iodide staining-based flow cytometry (reference value: 14.1%); type: functional
NCI-H460 [10] = assay: Induction of apoptosis in human NCI-H460 cells assessed as caspase-9 activation after 24 hrs by qRT-PCR analysis; type: functional, cell-based
NCI-H460 [11] = assay: Cell cycle arrest in human NCI-H460 cells assessed as accumulation at S phase at 10 uM after 48 hrs by Rnase A/propidium iodide staining-based flow cytometry (reference value: 19.41%); type: functional
NCI-H460 [12] = assay: Induction of apoptosis in human NCI-H460 cells assessed as necrotic cells at 5 uM after 24 hrs by Annexin V/propidium iodide staining-based flow cytometry (reference value: 6.9%); type: functional
NCI-H460 [13] = assay: Cell cycle arrest in human NCI-H460 cells assessed as accumulation at G2 phase at 8 uM after 24 hrs by Rnase A/propidium iodide staining-based flow cytometry (reference value: 33.9%); type: functional
NCI-H460 [14] = assay: Induction of apoptosis in human NCI-H460 cells assessed as necrotic cells after 24 hrs by Annexin V/propidium iodide staining-based flow cytometry; type: functional, cell-based
HUVEC = assay: Cytotoxicity against HUVEC after 48 hrs by MTT assay; type: cell-based; details: Homo sapiens
NCI-H460 [15] = assay: Cell cycle arrest in human NCI-H460 cells assessed as accumulation at G1 phase at 20 uM after 48 hrs by Rnase A/propidium iodide staining-based flow cytometry (reference value: 46.69%); type: functional
NCI-H460 [16] = assay: Cell cycle arrest in human NCI-H460 cells assessed as accumulation at G2 phase at 8 uM after 12 hrs by Rnase A/propidium iodide staining-based flow cytometry (reference value: 33.9%); type: functional
NCI-H460 [17] = assay: Cell cycle arrest in human NCI-H460 cells assessed as accumulation at S phase at 5 uM after 48 hrs by Rnase A/propidium iodide staining-based flow cytometry (reference value: 19.41%); type: functional
NCI-H460 [18] = assay: Induction of apoptosis in human NCI-H460 cells assessed as early apoptotic cells at 8 uM after 24 hrs by Annexin V/propidium iodide staining-based flow cytometry (reference value: 6.8%); type: functional
NCI-H460 [19] = assay: Induction of apoptosis in human NCI-H460 cells assessed as caspase-4 activation after 24 hrs by qRT-PCR analysis; type: functional, cell-based
NCI-H460 [20] = assay: Induction of apoptosis in human NCI-H460 cells assessed as necrotic cells at 20 uM after 24 hrs by Annexin V/propidium iodide staining-based flow cytometry (reference value: 6.9%); type: functional
NCI-H460 [21] = assay: Induction of apoptosis in human NCI-H460 cells assessed as upregulation of cytochrome C mRNA expression after 24 hrs by qRT-PCR analysis; type: functional, cell-based
NCI-H460 [22] = assay: Induction of apoptosis in human NCI-H460 cells assessed as late apoptotic cells at 20 uM after 24 hrs by Annexin V/propidium iodide staining-based flow cytometry (reference value: 14.1%); type: functional
NCI-H460 [23] = assay: Induction of apoptosis in human NCI-H460 cells assessed as karyopyknosis and chromatin condensation at 8 uM by Hoechst 33258 staining-based fluorescence microscopy relative to control; type: functional, cell-based; details: TDE = time-dependent effect
NCI-H460 [24] = assay: Cell cycle arrest in human NCI-H460 cells assessed as accumulation at G2 phase at 10 uM after 48 hrs by Rnase A/propidium iodide staining-based flow cytometry (reference value: 33.9%); type: functional
NCI-H460 [25] = assay: Induction of apoptosis in human NCI-H460 cells assessed as viable cells at 5 uM after 24 hrs by Annexin V/propidium iodide staining-based flow cytometry (reference value: 72.2%); type: functional; details: NCI-H460, 24 h, read-out: Activity
NCI-H460 [26] = assay: Induction of apoptosis in human NCI-H460 cells assessed as necrotic cells at 10 uM after 24 hrs by Annexin V/propidium iodide staining-based flow cytometry (reference value: 6.9%); type: functional
CNE = assay: Cytotoxicity against human CNE cells after 48 hrs by MTT assay; type: functional, cell-based
NCI-H460 [27] = assay: Induction of apoptosis in human NCI-H460 cells assessed as early apoptotic cells at 8 uM after 48 hrs by Annexin V/propidium iodide staining-based flow cytometry (reference value: 6.8%); type: functional
NCI-H460 [28] = assay: Induction of apoptosis in human NCI-H460 cells assessed as upregulation of CAMK2 mRNA expression after 24 hrs by qRT-PCR analysis; type: functional, cell-based
NCI-H460 [29] = assay: Cell cycle arrest in human NCI-H460 cells assessed as accumulation at G1 phase at 10 uM after 48 hrs by Rnase A/propidium iodide staining-based flow cytometry (reference value: 46.69%); type: functional
NCI-H460 [30] = assay: Induction of apoptosis in human NCI-H460 cells assessed as early apoptotic cells at 5 uM after 24 hrs by Annexin V/propidium iodide staining-based flow cytometry (reference value: 6.8%); type: functional
NCI-H460 [31] = assay: Cell cycle arrest in human NCI-H460 cells assessed as accumulation at G1 phase at 8 uM after 12 hrs by Rnase A/propidium iodide staining-based flow cytometry (reference value: 46.69%); type: functional
NCI-H460 [32] = assay: Induction of apoptosis in human NCI-H460 cells assessed as change in mitochondrial membrane potential after 24 hrs by JC-1 staining-based fluorescence microscopy relative to control; type: functional, cell-based
NCI-H460 [33] = assay: Cell cycle arrest in human NCI-H460 cells assessed as accumulation at G2 phase at 20 uM after 48 hrs by Rnase A/propidium iodide staining-based flow cytometry (reference value: 33.9%); type: functional
NCI-H460 [34] = assay: Induction of apoptosis in human NCI-H460 cells assessed as increase in intracellular ROS generation at 5 to 20 uM after 24 hrs by DCFH-DA staining-based fluorescence microscopy; type: functional, cell-based
NCI-H460 [35] = assay: Induction of apoptosis in human NCI-H460 cells assessed as necrotic cells at 8 uM by Annexin V/propidium iodide staining-based flow cytometry; type: functional, cell-based; details: TDE = time-dependent effect

SMILES: CCOP(=O)(OCC)C(NC(=O)C(C)Oc1ccc2c(c1O)C(=O)c1ccccc1C2=O)c1cccc2ccccc12 (stereo unspecified)
- viability at 20 µM (NCI-H460 [1]): 43.4%
- Activity (NCI-H460 [2]): Active
- Activity (NCI-H460 [3]): Dose-dependent effect
- Activity (NCI-H460 [4]): Dose-dependent effect
- Activity (NCI-H460 [5]): 16.3%
- viability at 10 µM (NCI-H460 [6]): 44.6%
- Activity (NCI-H460 [7]): Active
- Activity (NCI-H460 [8]): tde
- Activity (NCI-H460 [9]): 8.3%
- Activity (NCI-H460 [10]): Dose-dependent effect
- Activity (NCI-H460 [11]): 15.41%
- Activity (NCI-H460 [12]): 1.4%
- Activity (NCI-H460 [13]): 32.56%
- Activity (NCI-H460 [14]): Dose-dependent effect
- IC50 (HUVEC): 40.5 µM
- Activity (NCI-H460 [15]): 61.6%
- Activity (NCI-H460 [16]): 34.32%
- Activity (NCI-H460 [17]): 17.02%
- Activity (NCI-H460 [18]): 36.6%
- Activity (NCI-H460 [19]): Dose-dependent effect
- Activity (NCI-H460 [20]): 1.4%
- Activity (NCI-H460 [21]): Dose-dependent effect
- Activity (NCI-H460 [22]): 16.4%
- Activity (NCI-H460 [23]): tde
- Activity (NCI-H460 [24]): 24.74%
- viability at 5 µM (NCI-H460 [25]): 71.4%
- Activity (NCI-H460 [26]): 1.1%
- IC50 (CNE): > 50 µM
- Activity (NCI-H460 [27]): 54.9%
- Activity (NCI-H460 [28]): Dose-dependent effect
- Activity (NCI-H460 [29]): 59.86%
- Activity (NCI-H460 [30]): 10.9%
- Activity (NCI-H460 [31]): 65.57%
- Activity (NCI-H460 [32]): Dose-dependent effect
- Activity (NCI-H460 [33]): 21.34%
- Activity (NCI-H460 [34]): Active
- Activity (NCI-H460 [35]): tde

SMILES: CCOP(=O)(OCC)C(NC(=O)C(C)Oc1ccc2c(c1O)C(=O)c1ccccc1C2=O)c1ccccc1OC (stereo unspecified)
- viability at 20 µM (NCI-H460 [1]): 30.7%
- Activity (NCI-H460 [2]): Active
- Activity (NCI-H460 [3]): Dose-dependent effect
- Activity (NCI-H460 [4]): Dose-dependent effect
- Activity (NCI-H460 [5]): 8.6%
- viability at 10 µM (NCI-H460 [6]): 41.4%
- Activity (NCI-H460 [7]): Active
- Activity (NCI-H460 [8]): tde
- Activity (NCI-H460 [9]): 5.6%
- Activity (NCI-H460 [10]): Dose-dependent effect
- Activity (NCI-H460 [11]): 9.84%
- Activity (NCI-H460 [12]): 2.8%
- Activity (NCI-H460 [13]): 21.99%
- Activity (NCI-H460 [14]): Dose-dependent effect
- IC50 (HUVEC): > 50 µM
- Activity (NCI-H460 [15]): 65.1%
- Activity (NCI-H460 [16]): 27.54%
- Activity (NCI-H460 [17]): 8.74%
- Activity (NCI-H460 [18]): 38.9%
- Activity (NCI-H460 [19]): Dose-dependent effect
- Activity (NCI-H460 [20]): 12.9%
- Activity (NCI-H460 [21]): Dose-dependent effect
- Activity (NCI-H460 [22]): 30.7%
- Activity (NCI-H460 [23]): tde
- Activity (NCI-H460 [24]): 29.38%
- viability at 5 µM (NCI-H460 [25]): 62.1%
- Activity (NCI-H460 [26]): 8.4%
- IC50 (CNE): 34.2 µM
- Activity (NCI-H460 [27]): 50.2%
- Activity (NCI-H460 [28]): Dose-dependent effect
- Activity (NCI-H460 [29]): 60.79%
- Activity (NCI-H460 [30]): 26.6%
- Activity (NCI-H460 [31]): 56.84%
- Activity (NCI-H460 [32]): Dose-dependent effect
- Activity (NCI-H460 [33]): 23.09%
- Activity (NCI-H460 [34]): Active
- Activity (NCI-H460 [35]): tde

SMILES: CCOP(=O)(OCC)C(NC(=O)C(C)Oc1ccc2c(c1O)C(=O)c1ccccc1C2=O)c1ccccc1F (stereo unspecified)
- viability at 20 µM (NCI-H460 [1]): 33.6%
- Activity (NCI-H460 [2]): Active
- Activity (NCI-H460 [3]): Dose-dependent effect
- Activity (NCI-H460 [4]): Dose-dependent effect
- Activity (NCI-H460 [5]): 9.2%
- viability at 10 µM (NCI-H460 [6]): 36.2%
- Activity (NCI-H460 [7]): Active
- Activity (NCI-H460 [8]): tde
- Activity (NCI-H460 [9]): 7.9%
- Activity (NCI-H460 [10]): Dose-dependent effect
- Activity (NCI-H460 [11]): 13.42%
- Activity (NCI-H460 [12]): 0.3%
- Activity (NCI-H460 [13]): 23.05%
- Activity (NCI-H460 [14]): Dose-dependent effect
- IC50 (HUVEC): 21 µM
- Activity (NCI-H460 [15]): 68.89%
- Activity (NCI-H460 [16]): 29.57%
- Activity (NCI-H460 [17]): 12.34%
- Activity (NCI-H460 [18]): 38.8%
- Activity (NCI-H460 [19]): Dose-dependent effect
- Activity (NCI-H460 [20]): 1.4%
- Activity (NCI-H460 [21]): Dose-dependent effect
- Activity (NCI-H460 [22]): 9.8%
- Activity (NCI-H460 [23]): tde
- Activity (NCI-H460 [24]): 20.77%
- viability at 5 µM (NCI-H460 [25]): 61.6%
- Activity (NCI-H460 [26]): 0.8%
- IC50 (CNE): 30.2 µM
- Activity (NCI-H460 [27]): 56.4%
- Activity (NCI-H460 [28]): Dose-dependent effect
- Activity (NCI-H460 [29]): 65.81%
- Activity (NCI-H460 [30]): 28.9%
- Activity (NCI-H460 [31]): 55.78%
- Activity (NCI-H460 [32]): Dose-dependent effect
- Activity (NCI-H460 [33]): 20.06%
- Activity (NCI-H460 [34]): Active
- Activity (NCI-H460 [35]): tde
